Experimental data published in patent US20220096539A1, “SALT NANOPARTICLES AND COMPOSITIONS AND METHODS OF USE THEREOF” (priority 2019, published 2022).

How the values were obtained:
PC-3 cells [1] = assay type: cell-based, human; details: MTT 24 h; NaCl salt at 160 μg/mL; free phospholipid
Experimental: Cells were seeded into 96-well plates at the density of 1×10^4 cells per well and incubated overnight. […] MTT assays (3-(4,5-dimethylthiazol-2-yl)-2,5-diphenyl tetrazolium bromide, Sigma) were performed following the manufacture's protocol. The absorbance at 570 nm was measured by a microplate reader (Synergy Mx, BioTeK). All measurements were performed in sextuplicate.

B16F10 cells = experiment: CRT presentation, ATP and HMGB-1 release; assay type: cell-based, murine; details: control
Experimental: (§1) CRT expression on cell surface in flow cytometry assessment. T24, UMUC2, UPPL-1541, BBN963, B16F10, and SCC VII cells are seeded into the 6 wells plate at 1×10^6 per well. After overnight incubation, the cells were treated with NaCl particles ([…]) (160 μg/mL) for 2 h. PBS treated cells were used as a control. All the cells were collected by cell […], and incubated with an Alexa Fluor® 647-conjugated anti-CRT antibody (ab196159, 1/500. Abcam) for 30 min at 4° C. The cells were incubated in 500 μL PBS containing 50 μg/mL propidium iodide before washing and assessment on a flow cytometer. The data were expressed in histogram compared to the PBS treated control cells. Cells were seeded into 96-well plates at the density of 1×10^4 cells per well and incubated overnight. Then the cells were treated with […] dispersed in PBS at a dose range of 13.2-320 μg/mL for 1, 2, 4 h and 24 h. Cell supernatant was collected after 1-4 h incubation and tested in ATP 1step Luminescence Assay System, 100 mL ATP Assay Kit (PerkinElmer, US) following the manufacture's protocol. […] The luminescence was measured by a microplate reader (Synergy Mx, BioTeK). All measurements were performed in sextuplicate. Cell supernatant was collected after 24 h incubation and tested in an ELISA kit (IBL International GmbH), according to the manufacturer's instructions.

SCC VII cells = experiment: CRT presentation, ATP and HMGB-1 release; assay type: cell-based, murine; details: control
Experimental: as §1

PC-3 cells [2] = experiment: Necrosis inhibition study (LDH release); assay type: cell-based, human; details: PC-3 cells pre-incubated with inhibitor 1 h, then PSCNPs
Experimental: PC-3 cells were plated overnight at a density of 1×10^4 cells per well in a 96-well plate. These cells were pre-treated with necrosis inhibitor glycine (5 mM) or capsase-1 inhibitor Ac-YVAD-cmk (30 μg/mL) for 1 h, and then incubated with […] (160 or 320 μg/mL) for 6 h. Cell without glycine or Ac-YVAD-cmk treatment were studied as controls. Supernatants were collected and the LDH contents were analyzed by LDH Assay Kit-WST (CT01-05, Dojindo, Japan). The results were normalized to PBS treated control cells.

[3] = assay type: physicochemical; details: pH 5.5
Experimental: were dispersed in 100 μl ammonium acetate buffers (pH=5.5 or pH=7) and added into a Slide-A-LyzerTM MINI Dialysis Device (MWCO=2K, Cat #69550, Thermofisher, US). Place the unite into a 5 mL Eppendorf tube containing 4.5 mL ammonium acetate buffer. Keep the tube on the shaker (20 rpm) at room temperature. […] All measurements were performed following the manufacture's protocol and repeated in sextuplicate.

PC-3 tumor xenografts = experiment: In vivo therapy study, PC-3 tumor model; details: mouse
Experimental: Animal studied were performed according to a protocol approved by the Institutional Animal Care and Use Committee (IACUC) of the University of Georgia. The animals were maintained under pathogen-free conditions. PC-3 tumor model was generated by subcutaneously injecting 2×10^6 cells in 50 μL PBS into the right flank of 5-6 week old male athymic nude mice (Charles River). U-87 MG tumor model was generated in female athymic nude mice (Charles River) following the same method as PC-3 model. B16F10 tumor model was generated by subcutaneously injecting 2×10^5 cells in 50 μL PBS into the right flank of 5-6 week old female C57BU6 mice (Charles River). SCC VII tumor model was generated by subcutaneously injecting […] in 50 μL PBS into the right flank of 5-6 week old female C3H/HeN mice (Charles River). UPPL-1541 tumor model was generated by subcutaneously injecting 1×10^6 cells in 50 μL PBS into the right flank of 5-6 week old female C57BL6 mice (Charles River).
For therapy studies, PC-3 tumor bearing mice were randomly divided into 2 groups (n=5 for each group). When the average tumor volume was about 100 mm^3, PSCNPs (9 mg/mL, 50 μL) were intratumorally injected on day 0, 2 and 4. For control, saline at the same volume was injected. […] The tumor was measured in two dimensions with a caliper, and the tumor volume was estimated as (length)×(width) 2/2. […]

1,2-distearoyl-sn-glycero-3-phosphoethanolamine-N-[amino(polyethylene glycol)-2000] (ammonium salt) [free phospholipid]
toxicity to PC-3 cells (PC-3 cells [1]): no toxicity

[Cl-].[Na+] [NaCl salt, NaCl]
toxicity to PC-3 cells (PC-3 cells [1]): no toxicity | release of ICD biomarkers (ATP and HMGB-1) (B16F10 cells): negligible impact | release of ICD biomarkers (ATP and HMGB-1) (SCC VII cells): negligible impact

NCC(=O)O [glycine]
reduction of PSCNP-induced LDH release (PC-3 cells [2]): 72.9%

Ac-YVAD-cmk
reduction of PSCNP-induced LDH release (PC-3 cells [2]): 60.9%

Phospholipid-coated Sodium Chloride Nanoparticles [PSCNPs]
effect of lowering pH to 5.5 on nanoparticle degradation [3]: did not accelerate nanoparticle degradation | toxicity in major organs (PC-3 tumor xenografts): no sign of toxicity
